Measurements from patent US20250325467A1, “COMPOSITIONS FOR PREVENTING OR TREATING SKIN AGING” (ESTETRA SRL, priority 2021, published 2025).
Entries after “also recorded” stand apart in the source; their conditions may differ.

Experiments:
[1] = female, Lister Hooded, rat, in vivo, 0.5 h
Protocol: Tissue distribution was determined in female rats (partially pigmented and non-pigmented) using [^14C]-estetrol.
A group of six female Lister Hooded rats each received a single oral dose of [^14C]-estetrol. At each selected time (see below) one animal was killed (by overdose of CO2) followed by immediate snap freezing in hexane/solid CO2. The carcasses were retained for examination of the tissue distribution of radioactivity using the technique of quantitative whole body autoradiography (QWBA).
Times for analysis were: (0.5, 8, and 24 hours, 7, 14 and 35 days)
Frozen carcasses were subjected to whole-body autoradiography.
Where concentrations are reported, radioactivity was assumed to be associated with [^14C]-estetrol or any metabolic products derived from [^14C]-estetrol. The specific activities of the dosed test compounds were used for the calculation of concentrations in all cases. Recoveries of radioactivity are reported as percentage of administered radioactivity (% dose). Radioactivity concentrations are also reported as pg equivalents/g.

[2] = test system: Normal Human Epidermal Keratinocytes (NHEKs); test: Colonization of a standard acellular area (IBIDI chamber gap closure) by keratinocytes; type: cell-based; details: vs ethanol control, 6 h and 24 h; for NHEK Proliferation & Migration (colonization of the acellular area): absence of MMC; for NHEK Migration (+MMC) (colonization of the acellular area): presence of MMC
Protocol: The study consists in an in vitro assay aiming to evaluate the properties of E4 and E2 at 4 concentrations each on keratinocytes and fibroblasts. In this assay, the measurement of the colonization of a standard acellular surface generated from a confluent monolayer of cells using a dedicated culture device (IBIDI chamber) is performed. The assay is performed in absence and in presence of a proliferation inhibitor to focus on cell proliferation and migration or on migration only, respectively.
The study was performed using cultures of Normal Human foreskin-derived Epidermal Keratinocytes (NHEKs, Lonza). The cells were grown in serum free Epilife medium (ThermoFisher Scientific) supplemented with Human Keratinocyte Growth Supplement (HKGS, ThermoFisher Scientific) and antibiotics. The cells were maintained in a humidified incubator at 37° C. with a 5% CO2 atmosphere.
Cells were plated in 2-well silicone inserts with a defined cell free gap (IBIDI chambers; IBIDI GmbH, 80209) that was previously inserted on 12-well culture plates. This culture device allows to create a standardized 500 μm±100 μm cell free gap for monitoring cell colonization. 24 h after seeding, when the culture reached high confluency, cells in the insert were treated, or not, with mitomycin C (MMC) at 10 μg/ml during 2 h. After these 2 hours, the insert was removed, and cells were treated with E2 or E4 in presence or not of MMC for additional 2 h. Then, if appropriate, the culture medium was removed and cells were treated with E2 or E4 for 22 h, in absence of MMC.
For the assay, keratinocytes were plated in Epilife medium without HKGS and all the treatments were performed in this medium. Fibroblasts were plated in DMEM medium containing only 2,5% of FBS and the treatments were performed in absence of FBS.
E2 and E4 were applied at 4 concentrations each (10^−7M, 10^−8M, 10^−9M, 10^−10M). In parallel, cells were treated with a positive control (HKGS 1% for human keratinocytes and PDGF-BB at 10 ng/ml for human fibroblasts).
To monitor cell colonization and to evaluate the gap closure rate, pictures of the gap were taken after different times: at time 0 h, corresponding to the beginning of the treatment with E2 or E4 and to the removal of the culture insert, at time 6 h and at time 24 h (corresponding to the end of the treatments with E2 or E4). Pictures were taken with a microscope Zeiss (Axiover 25-10× objective) and with a camera Invenio2EIII (DeltaPix—Lux-Optic). The colonized areas were quantified from the pictures by the use of the WimAsis platform—WimScratch software. For each insert, 3 pictures were taken at each time. As each condition was performed in triplicates, it means a total of 9 pictures per condition and per time point of acquisition

[3] = test system: human monocytes; test: Immune cell polarization (qPCR of M1/M2 markers), human monocytes; type: cell-based; details: activated human monocytes; qPCR markers NOS2, ARG1
Protocol: Immune cell polarization was evaluated in vitro using markers for M1/TH-1 (NOS2) and M2/TH-2 (ARG1) phenotype with human monocytes and mouse monocytes (BMDM bone marrow derived monocytes).
Human blood was collected under national ethical approval with full informed written patient consent. Freshly isolated human blood was collected in EDTA vacutainer tubes, diluted 1:1 in PBS and gently layered onto histopaque (Merck). Tubes were immediately centrifuged at 100×g for 30 minutes and the whitish buffy layer formed at the histopaque interface aspirated and washed (centrifuged 100×g, 10 minutes) twice with sterile PBS. Untouched classical (CD14++, CD16−) monocytes were isolated from the washed buffy layer cells using the Miltenyi Classical Monocyte Isolation Kit, LS columns and a MidiMACs separator (Miltenyi). Isolated cells were seeded into tissue culture plates and stimulated to differentiate using PMA.
An experiment was conducted to evaluate the anti-inflammatory effects of E4 or vehicle (negative control). qPCR methodology was used to assess the effects of E2 and E4 on immune cell polarization using well validated marker of pro-inflammatory (NOS2 for MI/TH-1 phenotype) and anti-inflammatory (ARG1 for ME/TH-2 phenotype) activity.

[4] = test system: primary human epidermal keratinocytes; test: Keratinocyte migration scratch assay; type: cell-based; details: 15% HKGS; E4 10^−10M and 10^−7M; compared with E2
Protocol: Human skin was transferred to the laboratory in holding media (DMEM containing 4% penicillin-streptomycin and Amphotericin B solution) within 30 minutes of collection. Once defatted, the skin was rinsed in HBSS with 4% PSA followed by DPBS without antibiotics, then cut into thin strips and floated on 0.2% Dispase II in DPBS overnight at 4° C., followed by manual separation of the epidermis from the dermis. Primary human epidermal keratinocytes and primary human dermal fibroblasts were then isolated.
(§1) Confluent wells of both primary keratinocytes and fibroblasts were subjected to a highly validated scratch wounding procedure (using a 1 mL sterile filter tip). Post-scratching, cells were rinsed with DPBS and cell-specific media containing treatments added to each well. Cells were imaged on a ptychographic live cell imaging platform (Livecyte 2™, Phasefocus) for 24-48 hours. Automated tracking of individual unlabeled cells will be combined with 3D cell measurements to quantify a range of wound-relevant cell parameters including scratch closure rate.
(§2) Dose range finding experiments were conducted with E4 (10^−10M to 10^−6M) and E2 with and without Mitomycin C (MMC, to inhibit proliferation) using vehicle as negative controls.

[5] = test system: mouse fibroblasts; test: Fibroblast monolayer scratch assay, mouse fibroblasts; type: cell-based; details: mouse fibroblasts (female C57Bl/6); 10^−7M; pilot experiments
Protocol: as §1, §2

- radioactivity based on total dose/tissue, non-pigmented skin [1]: 1.1%
- radioactivity based on total dose/tissue, pigmented skin [1]: 1.7%
SMILES: C[C@]12CC[C@@H]3c4ccc(O)cc4CC[C@H]3[C@@H]1[C@@H](O)[C@@H](O)[C@@H]2O [E4, 1,3,5 (10)-estratrien-3,15alpha,16alpha,17beta-tetrol]
- NHEK Proliferation & Migration (colonization of the acellular area) ([2]; 10^−7M): significantly increased the colonization of the acellular area; also recorded: significantly increases the surface colonized
- NHEK Migration (+MMC) (colonization of the acellular area) ([2]; 10^−7M): significantly increased the colonization of the acellular area; also recorded: significantly increases the surface colonized
- NHEK Proliferation & Migration (colonization of the acellular area) ([2]; 10^−10M): significantly increased the colonization of the acellular area; also recorded: significantly increases the surface colonized
- NHEK Migration (+MMC) (colonization of the acellular area) ([2]; 10^−10M): significantly increased the colonization of the acellular area; also recorded: significantly increases the surface colonized
- immune cell polarization (monocyte subtype M1/M2) [3]: switch from monocyte subtype M1 (pro-inflammatory) to subtype M2 (healing)
- impact on keratinocyte migration (wound closure) [4]: higher than the impact of E2
- fibroblast migration / in vitro wound closure [5]: promotes in vitro wound closure to a similar extent as E2; also recorded: as effective as E2 in promoting fibroblast migration
